Source: patent US20240252488A1 (KOREA RESEARCH INSTITUTE OF CHEMICAL TECHNOLOGY, priority 2020, published 2024)

Experiments:
MLKL [1] = molecular target: T1, MLKL (Homo sapiens, UniProt Q8NB16); assay: Measurement of binding affinity with MLKL receptor (competitive binding assay, Kd); parameters: made in house; host or cells: HEK 293 cell line (T7 phage in E. coli BL21-derived host is also described)
T1 sequence (Q8NB16 1-471): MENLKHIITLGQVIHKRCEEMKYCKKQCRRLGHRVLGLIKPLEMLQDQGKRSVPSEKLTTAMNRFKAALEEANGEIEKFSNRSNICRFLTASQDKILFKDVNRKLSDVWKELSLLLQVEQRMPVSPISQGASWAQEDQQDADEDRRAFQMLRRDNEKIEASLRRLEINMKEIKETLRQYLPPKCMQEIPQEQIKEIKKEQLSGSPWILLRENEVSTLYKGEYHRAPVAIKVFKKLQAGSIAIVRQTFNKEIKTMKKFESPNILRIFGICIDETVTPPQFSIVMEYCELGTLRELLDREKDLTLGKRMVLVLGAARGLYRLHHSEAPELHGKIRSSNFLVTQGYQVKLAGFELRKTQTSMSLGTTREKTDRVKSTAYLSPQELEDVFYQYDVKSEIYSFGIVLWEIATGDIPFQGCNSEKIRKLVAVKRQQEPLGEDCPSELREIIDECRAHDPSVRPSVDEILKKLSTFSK
Outline: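 qPCR of MLKL eluted from liganded beads served as the read-out, from which Kd was derived. The protein was made in HEK 293 cells with a DNA tag, and test compounds competed with the bead-bound ligand at 0.9% final DMSO.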

FADD−/− Jurkat cells = assay: Necroptosis inhibition assay, TNF-α-induced necroptosis (CellTiter-Glo 2.0); assay type: cell-based, human; settings: TNF-α 15 ng/mL, FADD−/− Jurkat cells; for Necroptosis inhibition assay (Rescue %) 1 μM: compound 1 μM; for Necroptosis inhibition assay (Rescue %) 10 μM: compound 10 μM
Outline: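 Cmpd 0.1/1/10 μM final, 30 min RT preincubation; TNF-α 15 ng/mL final; 20–24 h, 37° C, 5% CO2. Readout: ATP luminescence (reagent 1:3 in PBS), 0.5 s/well. Cytotoxicity and % necroptosis inhibition calculated from signal.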

MLKL [2] = molecular target: T1, MLKL; assay: MLKL degradation assay in HepG2 cell line (western blot); assay type: cell-based; parameters: endogenous in cells; host or cells: HepG2 or HaCaT; settings: cell line not given; for Degradation assay (Degradation %) 1 μM: compound 1 μM; for Degradation assay (Degradation %) 10 μM: compound 10 μM
Outline: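 HepG2, cpd final 1 or 10 μM, 20-24 h, 37 °C/5% CO2; RIPA lysis, BCA-normalized, 10-15 μg/lane SDS-PAGE, western blot, ECL read-out.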

| SMILES | Kd (MLKL [1]) [nM] | Degradation assay (Degradation %) 1 μM (MLKL [2]) [%] | Degradation assay (Degradation %) 10 μM (MLKL [2]) [%] | Necroptosis inhibition assay (Rescue %) 1 μM (FADD−/− Jurkat cells) [%] | Necroptosis inhibition assay (Rescue %) 10 μM (FADD−/− Jurkat cells) [%] |
| --- | --- | --- | --- | --- | --- |
| Nc1ncc(-c2cnn(C3CCN(C4CC5(CCN(CC6CCN(C(=O)C7CCN(C8=CC(=O)N(C9CCC(=O)NC9=O)C8=O)CC7)CC6)CC5)C4)CC3)c2)nc1C(=O)O[C@@H](C(=O)Nc1ccc(F)cc1)c1ccccc1 (stereo partly drawn) [TDH-528, (R)-2-((4-fluorophenyl)amino)-2-oxo-1-phenylethyl 3-amino-6-(1-(1-(7-((1-(1-(1-(2,6-dioxopiperidin-3-yl)-2,5-dioxo-2,5-dihydro-1H-pyrrol-3-yl)piperidine-4-carbonyl)piperidin-4-yl)methyl)-7-azaspiro[3.5]nonan-2-yl)piperidin-4-yl)-1H-pyrazol-4-yl)pyrazine-2-carboxylate] | 0.18 | 63.93 | 56.11 | 40.69 | 0.38 |
| Nc1ncc(-c2cnn(C3CCN(CCCN4CCN(C(=O)c5ccc6c(c5)CN(C5CCC(=O)NC5=O)C6=O)CC4)CC3)c2)nc1C(=O)O[C@@H](C(=O)Nc1ccc(F)cc1)c1ccccc1 (stereo partly drawn) [TDH-530, (R)-2-((4-fluorophenyl)amino)-2-oxo-1-phenylethyl 3-amino-6-(1-(1-(3-(4-(2-(2,6-dioxopiperidin-3-yl)-1-oxoisoindoline-5-carbonyl)piperazin-1-yl)propyl)piperidin-4-yl)-1H-pyrazol-4-yl)pyrazine-2-carboxylate] | 0.21 | 54.30 | 61.10 | 29.18 | 30.78 |
| Nc1ncc(-c2cnn(C3CCN(CCCN4CCN(C(=O)c5ccc(C(=O)NC6CCC(=O)NC6=O)cc5)CC4)CC3)c2)nc1C(=O)O[C@@H](C(=O)Nc1ccc(F)cc1)c1ccccc1 (stereo partly drawn) [TDH-535, (R)-2-((4-fluorophenyl)amino)-2-oxo-1-phenylethyl 3-amino-6-(1-(1-(3-(4-(4-((2,6-dioxopiperidin-3-yl)carbamoyl)benzoyl)piperazin-1-yl)propyl)piperidin-4-yl)-1H-pyrazol-4-yl)pyrazine-2-carboxylate] | 0.96 | 57.69 | 44.41 | 20.08 | 23.78 |
| Nc1ncc(-c2cnn(C3CCN(CCC4CCN(C(=O)c5ccc(C(=O)NC6CCC(=O)NC6=O)cc5)CC4)CC3)c2)nc1C(=O)O[C@@H](C(=O)Nc1ccc(F)cc1)c1ccccc1 (stereo partly drawn) [TDH-536, (R)-2-((4-fluorophenyl)amino)-2-oxo-1-phenylethyl 3-amino-6-(1-(1-(2-(1-(4-((2,6-dioxopiperidin-3-yl)carbamoyl)benzoyl)piperidin-4-yl)ethyl)piperidin-4-yl)-1H-pyrazol-4-yl)pyrazine-2-carboxylate] | 0.22 | 46.11 | 56.40 | 31.84 | 21.93 |
| Nc1ncc(-c2cnn(C3CCN(C4CC5(CCN(CC6CCN(C(=O)c7ccc(C(=O)NC8CCC(=O)NC8=O)cc7)CC6)CC5)C4)CC3)c2)nc1C(=O)O[C@@H](C(=O)Nc1ccc(F)cc1)c1ccccc1 (stereo partly drawn) [TDH-537, (R)-2-((4-fluorophenyl)amino)-2-oxo-1-phenylethyl 3-amino-6-(1-(1-(7-((1-(4-((2,6-dioxopiperidin-3-yl)carbamoyl)benzoyl)piperidin-4-yl)methyl)-7-azaspiro[3.5]nonan-2-yl)piperidin-4-yl)-1H-pyrazol-4-yl)pyrazine-2-carboxylate] | 0.61 | 64.82 | 86.14 | 32.07 | 30.76 |

Second part, led by results:

| Kd (MLKL [1]) [nM] | Degradation assay (Degradation %) 1 μM (MLKL [2]) [%] | Degradation assay (Degradation %) 10 μM (MLKL [2]) [%] | SMILES | Necroptosis inhibition assay (Rescue %) 1 μM (FADD−/− Jurkat cells) [%] | Necroptosis inhibition assay (Rescue %) 10 μM (FADD−/− Jurkat cells) [%] |
| --- | --- | --- | --- | --- | --- |
| 1.2 | 71.10 | 42.46 | Nc1ncc(-c2cnn(C3CCN(CC4CCN(CC5CCN(C(=O)C6CCN(C7=CC(=O)N(C8CCC(=O)NC8=O)C7=O)CC6)CC5)CC4)CC3)c2)nc1C(=O)O[C@@H](C(=O)Nc1ccc(F)cc1)c1ccccc1 (stereo partly drawn) [TDH-527, (R)-2-((4-fluorophenyl)amino)-2-oxo-1-phenylethyl 3-amino-6-(1-(1-((1-((1-(1-(1-(2,6-dioxopiperidin-3-yl)-2,5-dioxo-2,5-dihydro-1H-pyrrol-3-yl)piperidine-4-carbonyl)piperidin-4-yl)methyl)piperidin-4-yl)methyl)piperidin-4-yl)-1H-pyrazol-4-yl)pyrazine-2-carboxylate] | 42.79 | −12.98 |
| 0.25 | 24.89 | 66.48 | Nc1ncc(-c2cnn(C3CCN(CCOC4CCN(C(=O)C5CCN(C6=CC(=O)N(C7CCC(=O)NC7=O)C6=O)CC5)CC4)CC3)c2)nc1C(=O)O[C@@H](C(=O)Nc1ccc(F)cc1)c1ccccc1 (stereo partly drawn) [TDH-529, (R)-2-((4-fluorophenyl)amino)-2-oxo-1-phenylethyl 3-amino-6-(1-(1-(2-((1-(1-(1-(2,6-dioxopiperidin-3-yl)-2,5-dioxo-2,5-dihydro-1H-pyrrol-3-yl)piperidine-4-carbonyl)piperidin-4-yl)oxy)ethyl)piperidin-4-yl)-1H-pyrazol-4-yl)pyrazine-2-carboxylate] | 36.72 | 15.86 |
| 0.28 | 67.64 | 53.49 | Nc1ncc(-c2cnn(C3CCN(CCC4CCN(C(=O)C5CN(C6=CC(=O)N(C7CCC(=O)NC7=O)C6=O)C5)CC4)CC3)c2)nc1C(=O)O[C@@H](C(=O)Nc1ccc(F)cc1)c1ccccc1 (stereo partly drawn) [TDH-531, (R)-2-((4-fluorophenyl)amino)-2-oxo-1-phenylethyl 3-amino-6-(1-(1-(2-(1-(1-(1-(2,6-dioxopiperidin-3-yl)-2,5-dioxo-2,5-dihydro-1H-pyrrol-3-yl)azetidine-3-carbonyl)piperidin-4-yl)ethyl)piperidin-4-yl)-1H-pyrazol-4-yl)pyrazine-2-carboxylate] | 16.12 | 15.34 |
| 1.4 | 73.88 | 38.71 | Nc1ncc(-c2cnn(C3CCN(CCCN4CCN(C(=O)C5CN(C6=CC(=O)N(C7CCC(=O)NC7=O)C6=O)C5)CC4)CC3)c2)nc1C(=O)O[C@@H](C(=O)Nc1ccc(F)cc1)c1ccccc1 (stereo partly drawn) [TDH-532, (R)-2-((4-fluorophenyl)amino)-2-oxo-1-phenylethyl 3-amino-6-(1-(1-(3-(4-(1-(1-(2,6-dioxopiperidin-3-yl)-2,5-dioxo-2,5-dihydro-1H-pyrrol-3-yl)azetidine-3-carbonyl)piperazin-1-yl)propyl)piperidin-4-yl)-1H-pyrazol-4-yl)pyrazine-2-carboxylate] | 21.37 | 24.82 |
| 0.47 | 33.35 | 29.05 | Nc1ncc(-c2cnn(C3CCN(CC4CCN(CC5CCN(C(=O)C6CN(C7=CC(=O)N(C8CCC(=O)NC8=O)C7=O)C6)CC5)CC4)CC3)c2)nc1C(=O)O[C@@H](C(=O)Nc1ccc(F)cc1)c1ccccc1 (stereo partly drawn) [TDH-533, (R)-2-((4-fluorophenyl)amino)-2-oxo-1-phenylethyl 3-amino-6-(1-(1-((1-((1-(1-(1-(2,6-dioxopiperidin-3-yl)-2,5-dioxo-2,5-dihydro-1H-pyrrol-3-yl)azetidine-3-carbonyl)piperidin-4-yl)methyl)piperidin-4-yl)methyl)piperidin-4-yl)-1H-pyrazol-4-yl)pyrazine-2-carboxylate] | 11.86 | 22.99 |
| 0.24 | 49.96 | 24.88 | Nc1ncc(-c2cnn(C3CCN(C4CC5(CCN(CC6CCN(C(=O)C7CN(C8=CC(=O)N(C9CCC(=O)NC9=O)C8=O)C7)CC6)CC5)C4)CC3)c2)nc1C(=O)O[C@@H](C(=O)Nc1ccc(F)cc1)c1ccccc1 (stereo partly drawn) [TDH-534, (R)-2-((4-fluorophenyl)amino)-2-oxo-1-phenylethyl 3-amino-6-(1-(1-(7-((1-(1-(1-(2,6-dioxopiperidin-3-yl)-2,5-dioxo-2,5-dihydro-1H-pyrrol-3-yl)azetidine-3-carbonyl)piperidin-4-yl)methyl)-7-azaspiro[3.5]nonan-2-yl)piperidin-4-yl)-1H-pyrazol-4-yl)pyrazine-2-carboxylate] | 21.33 | 22.25 |
